Reference: patent US20080044419A1, “Treatment of T Cell Mediated Diseases by Inhibition of Fgfr3” (Fibron Ltd., priority 2003, published 2008)

Legend:
[1] = tested on: Collagen Induced Arthritis (CIA) mice; assay: Murine Collagen Induced Arthritis (CIA) model, paw edema; assay type: in vivo; details: i.p. daily injections
Protocol: Murine collagen-induced arthritis (CIA) is considered a useful model for studying human RA since the two diseases share numerous pathologic, immunological, and genetic features. The CIA model in mice results in a symmetric polyarthritis in which bone and cartilage erosion typically occur, 2-4 weeks after immunization with […] type II collagen on complete Freud's adjuvant (CFA).
Male DBA/l mice (8-10 weeks old) were subject to an intradermal injection at the base of the tail with 200 μg type II collagen purified from bovine articular cartilage emulsified in CFA. The mice received a booster injection of 200 μg type II collagen emulsified in CFA three weeks after the first dose.
The mice were checked daily and each animal with edema in one or more limbs was randomly assigned to one of several groups for further treatment. The thickness of each affected hind paw was measured with microcalipers. The results are expressed as a direct measure of paw width in millimeters.
Each mouse was injected intraperitoneally on the day following disease onset (day 1) with 100 ug anti-FGFR3-ScFv or anti-FGFR3 Fab′ or 20 mg/kg of a FGFR3 specific tyrosine kinase (TK) inhibitor (SU5402, Calbiochem, La Jolla, Calif.), followed by daily injections with 300 μg anti-FGFR3 ScFv or anti-FGFR3 Fab′ or with 20 mg/kg SU5402.

[2] = tested on: cutaneous delayed type hypersensitivity reactions in mice; assay: Delayed type hypersensitivity (DTH) assay, oxazolone, ear thickness; assay type: in vivo; details: treated mice, oxazolone challenge, measured after 24 hours
Protocol: The mouse model for cutaneous delayed type hypersensitivity reactions was used to investigate the effects of FGFR3 inhibitors on induced skin inflammation. Oxazolone solutions (2% and 0.5%) were prepared by dissolving 200 and 50 mg, respectively, of oxazolone in 8 ml of acetone and 2 ml of olive oil. Mice were challenged with oxazolone by topical application onto the abdomen of each mouse (100 μl of 2% oxazolone) followed by 10 μl of 0.5% oxazolone on the right ear after 6 days. Differences between right and left ear thickness, indicating DTH development, were measured after 24 hours using a microcaliper.

## Cc1c[nH]c(/C=C2\C(=O)Nc3ccccc32)c1CCC(=O)O [SU5402]
[1]
  reduction in paw edema: significant reduction
[2]
  DTH reaction: induction of edema (ear thickness difference): no induction of edema
